Entries after “also recorded” stand apart in the source; their conditions may differ. Where two headings read alike, the source gives them in different places.
Legend:
[1] = cited from earlier work
From the text: To this end, we prepared UptA:C55-P mixtures and then equilibrated aliquots with bacitracin and vancomycin. […] Despite the combined cellular pool of C55-PP and C55-P being limited to ~1.5 × 10^5 molecules per cell ([56]), they mediate the transport of glycan-bearing components of the cell wall peptidoglycan, teichoic acid, and capsular polysaccharid ...

[2] = daptomycin ref 45; vancomycin ref 49, 50; cited from earlier work
UptA [3] = target: T1, UptA (Bacillus subtilis, UniProt O31823); assay: Native MS of antibiotic binding to UptA; conditions: 2.5 µM UptA, 10 µM C55-P, antibiotic up to 100 µM (polymyxins 100 µM), 0.05% LDAO, 200 mM ammonium acetate, 75 V
Protocol: We next investigate how UptA and its complex with C55-P interact with a range of cell-wall targeting antibiotics including the lipopeptides daptomycin and amphomycin. […] We investigated whether daptomycin affects C55-P binding to UptA by recording spectra for solutions containing 2.5 µM UptA, 10 µM C55-P, and different concentrations of daptomycin.
(§1) Amphomycin and derivatives are known to kill bacteria by forming complexes with free C55-P ([46]), however, whether or not this involves a direct interaction with a protein cellular target is not known. We therefore investigated how amphomycin affects the UptA:C55-P complex. We recorded spectra for solutions containing 2.5 µM UptA, 10 µM C55-P and then equilibrated aliquots with increasing concentrations of amphomycin.
The amphiphilic nature of daptomycin and amphomycin raises the possibility that these lipopeptide antibiotics may promiscuously bind to UptA in a nonspecific manner. We probe this possibility by recording spectra for UptA:C55-P solutions in the presence of 100 µM polymyxin B and 100 µM polymyxin E. These polymyxins are membrane-disrupting lipopeptides that target the outer membrane lipopolysaccharides in Gram-negative bacteria ([47]) but without a known affinity for C55-P or UptA.
To this end, we prepared UptA:C55-P mixtures and then equilibrated aliquots with bacitracin and vancomycin.
(§2) Detailed experimental procedures are provided in SI Appendix. Briefly, UptA (wild type and mutants) was expressed in E. coli C43(DE3) cells (Lucigen) with GFP fusion on the C-terminus and solubilized from the membrane fraction by n-dodecyl-β-D-maltopyranoside (DDM). After purification by affinity chromatography, the GFP was cleaved by TEV protease and removed, and UptA was further purified by size-exclusion chromatography in a buffer containing 20 mM Tris-HCl (pH 8.0), 200 mM NaCl, 0.02% DDM. Before measurements, proteins were buffer-exchanged into 0.05% LDAO, 200 mM ammonium acetate at the desired pH using a centrifugal buffer exchange device (Micro Bio-Spin 6, Bio-Rad). Stock solutions of lipids were prepared from chloroform/methanol solution by evaporating aliquots of known volume in a SpeedVac. After drying, the lipid films were weighed and resuspended to a final concentration of 0.5 mM in 200 mM ammonium acetate and 0.05% LDAO by vertexing. Stock solutions of 0.5 mM amphomycin, aspartocin D, daptomycin, polymyxin B, polymyxin E, and bacitracin were made in the same buffer. All experiments were repeated three times from newly prepared stock solutions. Native mass spectrometry was performed on a Q-Exactive hybrid quadrupole-Orbitrap mass spectrometer (Thermo Fisher Scientific, Bremen, Germany), and lipid identification was performed on an Orbitrap Eclipse Tribrid mass spectrometer (Thermo). […]

UptA:C55-P complex = assay: Native MS of UptA:C55-P complex in the presence of antibiotics; type: binding, Bacillus subtilis; conditions: 2.5 µM UptA, 10 µM C55-P, 0 to 100 µM antibiotic, 75 V; mean of three independent replicates
Protocol: as §1
(A) Mass spectra (6+ charge state) for solutions containing 2.5 µM UptA and 10 µM C55-P incubated with 0 to 100 µM amphomycin. (B) Relative intensity of C55-P bound to UptA in the presence of amphomycin and daptomycin. The bar represents the mean of three independent replicates shown as data points and error bars are SD. […] (C) Fraction of C55-P bound to UptA in the presence of cell wall targeting antibiotics. Each sample contains 2.5 µM UptA, 10 µM C55-P and 100 µM of indicated antibiotic, and spectra were acquired using the same instrument settings and collisional activation of 75 V. The bar represents the mean of three independent replicates shown as data points, and the error bar represents SD. […]
as §2

MurJ = conditions: read-out: Kd, MurJ/lipid II; cited from earlier work
Protocol: (§3) We explored the binding affinity of UptA toward C55-P by recording mass spectra for solutions containing 2.5 µM UptA and 0 to 40 µM C55-P in 200 mM ammonium acetate, 0.05% LDAO at pH 8.0. […] Further increase in the concentration of C55-P enhanced the intensity of the UptA:C55-P complex, together with the emergence of additional binding events (Fig. 2A). We deconvoluted the spectra ([34]) to extra ...

MurG = conditions: read-out: Kd, MurG/lipid I; cited from earlier work
Protocol: as §3

UptA [4] = target: T1, UptA; assay: Native MS competition of C55-P and phospholipids for UptA binding; conditions: 4 µM UptA and 10 µM C55-P, increasing DOPG (up to 20 µM) or DOPE
Protocol: To investigate whether or not C55-P can outcompete phospholipids in binding to UptA, we incubated solutions containing UptA-DOPG with increasing concentrations of C55-P. Spectra were recorded after aliquots of the solution were equilibrated on ice for 15 min. […] We therefore hypothesised that phospholipids should be unable to outcompete C55-P bound to UptA. To test this hypothesis, we incubated UptA with C55-P and then equilibrated aliquots with an increasing concentration of DOPG. […]
The chloroform layer containing the total lipids was recovered into a clean glass vial, and the organic solvent was evaporated in a SpeedVac for 16 h. Lipid film was resuspended 200 mM ammonium acetate, 0.05% LDAO (pH 8.0) to ~0.5 mg/mL for the binding experiments.
Sample preparation for native MS
Before measurements, the protein was buffer-exchanged into 0.05% LDAO, 200 mM ammonium acetate (“MS buffer”) at the desired pH using a centrifugal buffer exchange device (Micro Bio -Spin 6, Bio-Rad). Stock solutions of lipids were prepared from chloroform/methanol solution by evaporating aliquots of known volume in a SpeedVac. After drying, the lipid films were weighed and resuspended to a final concentration of 0.5 mM in 200 mM ammonium acetate (pH8) and 0.05% LDAO by vertexing. Stock solutions of 0.5 mM amphomycin, aspartocin D, daptomycin and bacitracin, were made in the same buffer. All experiments were repeated three times from newly prepared stock solutions.
About 3 μL protein aliquot was transferred into a gold-coated borosilicate capillary (Harvard Apparatus) and was mounted on the nano ESI source of a Q-Exactive hybrid quadrupole-Orbitrap mass spectrometer (Thermo Fisher Scientific, Bremen, Germany). The instrument settings were 1.2 kV capillary voltage, S-lens RF 200%, argon UHV pressure 3.3 × 10−10 mbar, the capillary temperature was set to 200 °C, and resolution of the instrument was set to 17,500 at a transie nt time of 64 ms. […] The resulting fragments were detected in the Orbitrap (R = 280,000 @ m/z 200), averaging ~500 transients to maximise the signal-to-noise ratio. […]

UptA [5] = target: T1, UptA; assay: Native MS of phospholipid binding to UptA
From the text: Proteins belonging to the DedA family are a widespread family of transporters and are proposed to flip diverse lipids, including carrier lipids and membrane phospholipids. We therefore probed the interaction of UptA with membrane phospholipids to understand whether the latter could modulate its function. For this purpose, we selected anionic phosphatidylglycerols (PG) and zwitterionic phosphatidylethanolamines (PE), representing the major classes of phospholipid headgroups found in B. subtilis ([41], [42]). We recorded mass spectra of solutions containing 4 µM UptA incubated with 10 µM a15:0-i15:0 PE and 10 µM a15:0-i15:0 PG (a15:0, anteiso-pentadecanoic acid; i15:0, iso-pentadecanoic acid). The fatty acid composition of these lipids closely mimics those of native B. subtilis lipids (see below). The resulting spectra display peaks corresponding to UptA in apo and lipid-bound forms in both cases (Fig. 4 A and B). […] We therefore hypothesize that UptA interacts more favorably with PG than with PE.
To verify the lipid binding preference of UptA with more native-like lipids, we prepared lipid extracts from B. subtilis membranes (Materials and Methods). We then incubate an aliquot of the resulting crude lipids (SI Appendix, Fig. S8) with UptA. The spectra yielded peaks assigned to UptA in complex with cardiolipins (~1,326 Da) and a range of phospholipids, predominantly 694 Da, 721 Da, 748 Da, and 776 Da species (Fig. 4 D and E). To identify these lipids, we performed tandem MS/MS, isolating the lipid species and subjecting it to collisional activation. […] The fatty acid fragments are mixed populations, predominantly 15:0-15:0, 15:0-17:0, 16:0-16:0, and 16:0-18:1 (SI Appendix, Fig. S9) which are the typical fatty acids from B. subtilis membrane phospholipids ([42]). We therefore conclude that UptA interacts more favorably with the anionic cardiolipins and phosphatidylglycerols than with the zwitterionic phosphatidylethanolamines in the membrane lipid extracts.
as §2
Lipid extracts from B. Subtilis
B. subtilis strain 168 (ATCC 23857) was cultivated in […] LB media at 37 °C until OD600 nm 1.2 under aurobic conditions. Cells were harvested by centrifugation at 4,000 g for 20 minutes and resuspended in 20 mM Tris-HCl (pH 8.0), 150 mM NaCl. Cells were lysed by 5-6 passes through a microfluidizer at 20,000 psi. The lysates were clarified by centrifugation at 4,000 g for 10 minutes, and the totoal membrane was pelleted at 120,000 g for 1 h. The membrane pellet was ressupended […]

[6] = target: the molecule itself; assay: native MS; UptA 2.2 µM (E32A 2.5 µM, with 10 µM C55-P) in 200 mM ammonium acetate pH 8.0, 0.05% LDAO; dimer 9+ charge state isolated and dissociated into protomers by HCD (190 V); more dimer at pH 8.0 than at pH 5.0

Molecule: teixobactin
- complex formation with or sequestration of C55-PP (in words) [1]: form complex with C55-PP

Molecule: daptomycin
- complex formation with or sequestration of lipid II (in words) [2]: complexing with lipid II
- binding of antibiotic to UptA (in words) (UptA [3]): daptomycin interacts with UptA
- effect of antibiotic on UptA:C55-P complex (in words) (UptA:C55-P complex): does not directly compete against C55-P binding to the protein; also recorded: modest impact

Molecule: lipid II
- Kd (MurJ): 2.9 ± 0.6 µM

Molecule: CC(=O)N[C@H]1[C@@H](OP(=O)(O)OP(=O)(O)OC/C=C(/C)CC/C=C(/C)CC/C=C(/C)CC/C=C(/C)CC/C=C(/C)CC/C=C(/C)CC/C=C(/C)CC/C=C(\C)CC/C=C(\C)CC/C=C(\C)CCC=C(C)C)O[C@H](CO)[C@@H](O)[C@@H]1O[C@H](C)C(=O)N[C@@H](C)C(=O)N[C@H](CCC(=O)N[C@@H](CCCCN)C(=O)N[C@H](C)C(=O)N[C@H](C)C(=O)O)C(=O)O [lipid I]
- Kd (MurG): 1.89 ± 0.6 µM

Molecule: CCCCCCCC/C=C\CCCCCCCC(=O)OC[C@H](COP(=O)(O)OCCN)OC(=O)CCCCCCC/C=C\CCCCCCCC [18:1-18:1 PE]
- displacement of C55-P from UptA by phospholipid (in words) (UptA [4]): could not efficiently displace C55-P from UptA

Molecule: CCCCCCCC/C=C\CCCCCCCC(=O)OC[C@H](COP(=O)(O)OCC(O)CO)OC(=O)CCCCCCC/C=C\CCCCCCCC (stereo partly drawn) [18:1-18:1 PG]
- mean relative intensity of UptA in complex with phospholipid, comparison (in words) (UptA [5]; 4 µM UptA with 10 µM lipid (stated for a15:0-i15:0 lipids), mean of three independent replicates): bind to UptA more intensely than 16:0-18:1 PE and 18:1-18:1 PE, respectively
- UptA-lipid complexes formed (stoichiometry, in words) (UptA [5]; 4 µM UptA with 10 µM lipid, native MS): binding of 1 to 2 molecules of DOPG per UptA
- displacement of C55-P from UptA by phospholipid (in words) (UptA [4]): C55-P remains bound to UptA even in the presence of excess DOPG (20 µM)

Molecule: bacitracin
- complex formation with or sequestration of C55-PP (in words) [1]: form complex with C55-PP
- complex formation with or sequestration of C55-PP (in words) ([1]; listed as Bacitracin): sequestration of C55-PP
- binding of antibiotic to UptA (in words) (UptA [3]): bind to UptA but with very low intensities
- effect of antibiotic on UptA:C55-P complex (in words) (UptA:C55-P complex): modestly competes against C55-P binding to UptA

B1: UptA (undecaprenyl phosphate transporter A), Bacillus subtilis, wild type (natural protein, UniProt O31823 1-198, looked up)
chain: MGSLISEILTWLTNMGYAGIAIGLMIEIIPSEIVLAYGGYMVSEGTIGFIGAIIAGVIGGTIAQIFIYWIGRYGGRPFLDKYGKYLLIKKHHIDMSENWFQKYGAGVVFSARFIPVVRHAISIPAGIARMPFLKFVVLTVLAIIPWSILFVYLGIQLGSQWDDVENIAGTYTTPIMILAVVVIALYFVIKKRTAIFKR
modifications: formylation of the N-terminal methionine
notes: UptA, DedA family membrane protein of Bacillus subtilis; detailed procedures are in SI Appendix; In equilibrium of monomers and dimers; also called WT; not shown: GFP, C-terminal, cleaved
- stoichiometry N [6]: 2

From paper PMC11474028, “Lipopeptide antibiotics disrupt interactions of undecaprenyl phosphate with UptA” (Proceedings of the National Academy of Sciences of the …, 2024)
